According to PubChem BioAssay (NCI):
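Growth conditions: 96-well plates. Treatment: test compound, 48 hours, 5 concentrations. Analysis: linear interpolation between bracketing concentrations; unreached endpoints set to highest concentration. Here, GI50 denotes the concentration required for 50% inhibition of growth. TGI denotes the concentration required for complete inhibition of growth.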

Experiments:
Test in all cases: inhibition of tumour cell growth, NCI panel, 48 h
[1] = system: SK-MEL-5 melanoma
[2] = system: HL-60(TB) leukemia
[3] = system: ACHN renal
[4] = system: SF-539 CNS
[5] = system: TK-10 renal
[6] = system: HCT-116 colon
[7] = system: CAKI-1 renal
[8] = system: HT29 colon
[9] = system: RPMI-8226 leukemia
[10] = system: K-562 leukemia
[11] = system: UACC-257 melanoma
[12] = system: SK-MEL-28 melanoma
[13] = system: HS 578T breast
[14] = system: M14 melanoma
[15] = system: OVCAR-5 ovarian
[16] = system: MOLT-4 leukemia
[17] = system: OVCAR-8 ovarian
[18] = system: NCI/ADR-RES ovarian
[19] = system: SF-268 CNS
[20] = system: SK-OV-3 ovarian
[21] = system: UACC-62 melanoma
[22] = system: MDA-MB-435
[23] = system: MALME-3M melanoma
[24] = system: A549 NSCLC
[25] = system: PC-3 prostate
[26] = system: COLO 205 colon
[27] = system: NCI-H522 lung
[28] = system: KM12 colon
[29] = system: SF-295 CNS
[30] = system: NCI-H226 lung
[31] = system: MDA-MB-231 breast
[32] = system: IGROV1 ovarian
[33] = system: SNB-75 CNS
[34] = system: SR leukemia
[35] = system: DU-145 prostate
[36] = system: T-47D breast
[37] = system: HCT-15 colon
[38] = system: EKVX NSCLC
[39] = system: LOX IMVI melanoma
[40] = system: SW-620 colon
[41] = system: RXF 393 renal
[42] = system: HOP-62 NSCLC
[43] = system: SN12C renal
[44] = system: A498 renal
[45] = system: MCF7 breast
[46] = system: SNB-19 CNS
[47] = system: CCRF-CEM leukemia
[48] = system: NCI-H23 lung
[49] = system: U251 CNS
[50] = system: OVCAR-4 ovarian
[51] = system: BT-549 breast
[52] = system: HOP-92 NSCLC
[53] = system: NCI-H460 lung
[54] = system: OVCAR-3 ovarian
[55] = system: MDA-N
[56] = system: UO-31 renal
[57] = system: SK-MEL-2 melanoma
[58] = system: 786-0 renal
[59] = system: HCC-2998 colon

Structure (SMILES): COC(=O)[C@H]1[C@H](C(=O)OC)[C@@H](C)c2c(ccc3c2[nH]c2ccccc23)[C@@H]1C
- TGI [1]: > 100 µM
- TGI [2]: > 100 µM
- TGI [3]: > 100 µM
- TGI [4]: > 100 µM
- TGI [5]: > 100 µM
- TGI [6]: > 100 µM
- TGI [7]: > 100 µM
- TGI [8]: > 100 µM
- TGI [9]: > 100 µM
- TGI [10]: > 100 µM
- TGI [11]: 66.3 µM
- TGI [12]: > 100 µM
- TGI [13]: > 100 µM
- TGI [14]: > 100 µM
- TGI [15]: > 100 µM
- TGI [16]: 6.7 µM
- TGI [17]: > 100 µM
- TGI [18]: > 100 µM
- TGI [19]: > 100 µM
- TGI [20]: > 100 µM
- TGI [21]: > 100 µM
- TGI [22]: > 100 µM
- TGI [23]: > 100 µM
- TGI [24]: > 100 µM
- TGI [25]: > 100 µM
- TGI [26]: > 100 µM
- TGI [27]: > 100 µM
- TGI [28]: > 100 µM
- TGI [29]: > 100 µM
- TGI [30]: > 100 µM
- TGI [31]: > 100 µM
- TGI [32]: > 100 µM
- TGI [33]: 68.7 µM
- TGI [34]: > 100 µM
- TGI [35]: > 100 µM
- TGI [36]: > 100 µM
- TGI [37]: > 100 µM
- TGI [38]: > 100 µM
- TGI [39]: > 100 µM
- TGI [40]: > 100 µM
- TGI [41]: 82.9 µM
- TGI [42]: > 100 µM
- TGI [43]: 33.5 µM
- TGI [44]: > 100 µM
- TGI [45]: > 100 µM
- TGI [46]: > 100 µM
- TGI [47]: > 100 µM
- TGI [48]: > 100 µM
- TGI [49]: > 100 µM
- TGI [50]: > 100 µM
- TGI [51]: > 100 µM
- TGI [52]: > 100 µM
- TGI [53]: > 100 µM
- TGI [54]: > 100 µM
- TGI [55]: > 100 µM
- TGI [56]: > 100 µM
- TGI [57]: > 100 µM
- TGI [58]: 61.5 µM

Structure (SMILES): O=C1c2cccnc2-c2nc(/C=C/c3ccccc3)cc3c2c1nc1ccccc13
- GI50 [2]: 1.79 µM
- TGI [2]: 7.97 µM
- GI50 [3]: 1.94 µM
- TGI [3]: 5.54 µM
- GI50 [4]: 3.02 µM
- TGI [4]: 7.77 µM
- GI50 [5]: 19.1 µM
- TGI [5]: 43.2 µM
- GI50 [59]: 1.81 µM
- TGI [59]: 3.2 µM
- GI50 [6]: 1.95 µM
- TGI [6]: 6.14 µM
- GI50 [7]: 3.05 µM
- TGI [7]: 10.3 µM
- GI50 [8]: 1.87 µM
- TGI [8]: 3.97 µM
- GI50 [9]: 1.2 µM
- TGI [9]: 5.12 µM
- GI50 [10]: 1.43 µM
- TGI [10]: 9.1 µM
- GI50 [11]: 2.35 µM
- TGI [11]: 6.3 µM
- GI50 [12]: 2.3 µM
- TGI [12]: 4.18 µM
- GI50 [13]: 3.74 µM
- TGI [13]: 18 µM
- GI50 [14]: 1.73 µM
- TGI [14]: 3.58 µM
- GI50 [15]: 11.8 µM
- TGI [15]: 25.4 µM
- GI50 [16]: 1.57 µM
- TGI [16]: 10.8 µM
- GI50 [17]: 3.8 µM
- TGI [17]: > 30 µM
- GI50 [18]: 6.35 µM
- TGI [18]: 42.1 µM
- GI50 [19]: 2.24 µM
- TGI [19]: > 21.2 µM
- GI50 [20]: 7.1 µM
- TGI [20]: 17 µM
- GI50 [21]: 1.72 µM
- TGI [21]: 3.28 µM
- GI50 [22]: 1.86 µM
- TGI [22]: 3.37 µM
- GI50 [23]: 5.01 µM
- TGI [23]: 20.5 µM
- GI50 [24]: 2.2 µM
- TGI [24]: 4.34 µM
- GI50 [25]: 1.97 µM
- TGI [25]: 13.6 µM
- GI50 [26]: 3.74 µM
- TGI [26]: 16.7 µM
- GI50 [27]: 1.76 µM
- TGI [27]: 3.47 µM
- GI50 [28]: 1.78 µM
- TGI [28]: 5.04 µM
- GI50 [29]: 2.31 µM
- TGI [29]: 5.27 µM
- GI50 [30]: 10.1 µM
- TGI [30]: 28 µM
- GI50 [31]: 6.95 µM
- TGI [31]: > 80.8 µM
- GI50 [32]: 1.59 µM
- TGI [32]: 4.44 µM
- GI50 [33]: 2 µM
- TGI [33]: 8.06 µM
- GI50 [35]: 1.76 µM
- TGI [35]: 3.58 µM
- GI50 [36]: 6.16 µM
- TGI [36]: > 78.7 µM
- GI50 [37]: 0.844 µM
- TGI [37]: 2.1 µM
- GI50 [38]: 2.82 µM
- TGI [38]: 14 µM
- GI50 [39]: 2.76 µM
- TGI [39]: 6.92 µM
- GI50 [41]: 14.8 µM
- TGI [41]: 37.1 µM
- GI50 [42]: 2.78 µM
- TGI [42]: 11.8 µM
- GI50 [43]: 2.77 µM
- TGI [43]: 9.01 µM
- GI50 [44]: 3.88 µM
- TGI [44]: 10.5 µM
- GI50 [45]: 0.899 µM
- TGI [45]: 5.01 µM
- GI50 [46]: 2.51 µM
- TGI [46]: 6.13 µM
- GI50 [47]: 3.06 µM
- TGI [47]: > 100 µM
- GI50 [48]: 1.6 µM
- TGI [48]: 3.58 µM
- GI50 [49]: 2.9 µM
- TGI [49]: 11.1 µM
- GI50 [50]: 3.77 µM
- TGI [50]: 10.5 µM
- GI50 [51]: 6.38 µM
- TGI [51]: 17.3 µM
- GI50 [52]: 17.4 µM
- TGI [52]: > 100 µM
- GI50 [53]: 0.354 µM
- TGI [53]: 1.27 µM
- GI50 [54]: 1.9 µM
- TGI [54]: 4.69 µM
- GI50 [55]: 2.04 µM
- TGI [55]: 4.15 µM
- GI50 [56]: 2.01 µM
- TGI [56]: 6.5 µM
- GI50 [57]: 2.14 µM
- TGI [57]: 4.99 µM
- GI50 [58]: 2.26 µM
- TGI [58]: 6.48 µM
